Experimental data published in patent publication US20250120951A1, “CLEMIZOLE FORMULATION” (EPYGENIX THERAPEUTICS, INC., priority 2021, published 2025).
Where “and” joins values, the source holds several entries; their conditions need not be identical. Equal values may be shown once. Where a name gives a salt, the structure may show the parent alone. Read-outs that look alike come from different tables or passages of the source.

Experiments:
[1] = Excipient compatibility: clemizole HCl assay and total related substances, 14 days at 50° C. (Example 4); assay type: physicochemical
Procedure: In an example, various excipients were examined at the 14-day time point (50° C.) to guide the decision on the choice of excipients to be used during formulation development. Table 5 below illustrates the stability of clemizole HCl at day 14 following incubation in the various formulations listed.
However, due to the poor solubility of ethyl parahydroxybenzoate, either a solubilizer such as PEG400, or a soluble form of ethyl parahydroxybenzoate, such as the sodium salt, would be required. Glycerol was compatible with clemizole HCl and may be used to improve the taste formulation.

[2] = Solubility testing for clemizole HCl in solvent systems (Example 1); assay type: physicochemical
Procedure: Solubility testing for clemizole HCl in a compatible solvent system was conducted to identify a buffer system that solubilized the required concentration of clemizole HCl without any precipitation. […] Actual clemizole HCl solubility values in each of the solvent systems are described in Table 1.

## Clc1ccc(Cn2c(CN3CCCC3)nc3ccccc32)cc1 [clemizole HCl]
[1]; 50° C., 14 day, mean
  Assay Results (%) 50° C., 14 day Mean: 100.9%
[1]; 50° C., 14 day, single replicates, listed as API only, HCl
  Assay Results (%) 50° C., 14 day: 101.1% and 100.7%
[1]; Initial, mean
  Assay Results (%) Initial Mean: 100.5%
[1]; Initial, single replicates, listed as API only, HCl
  Assay Results (%) Initial: 100.0% and 101.0%
[2]; 0.1 M HCl, simulated gastric fluid, 0.1M HCl 100% w/w, read-out: Actual Solubility
  solubility: 11 mg/mL
[2]; Solutol HS15 solution, 40 °C, aqueous with cosolvent or surfactant or cyclodextrin, 20% w/w solution of Solutol HS15 at 40° C., read-out: solubility of clemizole HCl
  solubility: 36 mg/mL
[2]; citrate buffer, pH 4.5, aqueous buffer, pH 4.5 Citrate Buffer 100% w/w, read-out: Actual Solubility
  solubility: 12.7 mg/mL
[2]; citrate buffer, pH 4.5, aqueous with cosolvent or surfactant or cyclodextrin, pH 4.5 Citrate Buffer 79.5 / PEG400 20.0 / Sodium ascorbate 0.5 % w/w, read-out: Actual Solubility
  solubility: 9.29 mg/mL
[2]; citrate buffer, pH 4.5, aqueous with cosolvent or surfactant or cyclodextrin, pH 4.5 Citrate Buffer 80.0 / Glycerol 20.0 % w/w, read-out: Actual Solubility
  solubility: 13.5 mg/mL
[2]; citrate buffer, pH 4.5, aqueous with cosolvent or surfactant or cyclodextrin, pH 4.5 Citrate Buffer 80.0 / Propylene glycol 20.0 % w/w, read-out: Actual Solubility
  solubility: 11.4 mg/mL
[2]; citrate buffer, pH 4.5, aqueous with cosolvent or surfactant or cyclodextrin, pH 4.5 Citrate Buffer 90.0 / 2-Hydroxypropyl-β-cyclodextrin 10.0 % w/w, read-out: Actual Solubility
  solubility: 29.9 mg/mL
[2]; citrate buffer, pH 4.5, aqueous with cosolvent or surfactant or cyclodextrin, pH 4.5 Citrate Buffer 94.5 / Polysorbate 20 5.0 / Sodium ascorbate 0.5 % w/w, read-out: Actual Solubility
  solubility: 21.4 mg/mL
[2]; citrate buffer, pH 4.5, aqueous with cosolvent or surfactant or cyclodextrin, pH 4.5 Citrate Buffer 94.5 / Polysorbate 80 5.0 / Sodium ascorbate 0.5 % w/w, read-out: Actual Solubility
  solubility: 24.6 mg/mL
[2]; citrate buffer, pH 4.5, aqueous with cosolvent or surfactant or cyclodextrin, pH 4.5 Citrate Buffer 95.0 / Cremophor ELP 5.0 % w/w, read-out: Actual Solubility
  solubility: 19.1 mg/mL
[2]; citrate buffer, pH 4.5, aqueous with cosolvent or surfactant or cyclodextrin, pH 4.5 Citrate Buffer 95.0 / Cremophor RH40 5.0 % w/w, read-out: Actual Solubility
  solubility: 19.7 mg/mL
[2]; citrate buffer, pH 4.5, aqueous with cosolvent or surfactant or cyclodextrin, pH 4.5 Citrate Buffer 95.0 / Solutol HS15 5.0 % w/w, read-out: Actual Solubility
  solubility: 19.8 mg/mL
[2]; citrate buffer, pH 4.5, aqueous with cosolvent or surfactant or cyclodextrin, pH 4.5 Citrate Buffer 95.0 / TPGS 5.0 % w/w, read-out: Actual Solubility
  solubility: 25.9 mg/mL
[2]; freeze-thawing
  effect of freeze-thawing on clemizole HCl solubility: does not appear to reduce
[2]; phosphate buffer, pH 6.8, aqueous buffer, pH 6.8 Phosphate Buffer 100% w/w, read-out: Actual Solubility
  solubility: 0.06 mg/mL
[2]; phosphate buffer, pH 6.8, aqueous with cosolvent or surfactant or cyclodextrin, pH 6.8 Phosphate Buffer 79.5 / PEG400 20.0 / Sodium ascorbate 0.5 % w/w, read-out: Actual Solubility
  solubility: 0.28 mg/mL
[2]; phosphate buffer, pH 6.8, aqueous with cosolvent or surfactant or cyclodextrin, pH 6.8 Phosphate Buffer 80.0 / Glycerol 20.0 % w/w, read-out: Actual Solubility
  solubility: 0.07 mg/mL
[2]; phosphate buffer, pH 6.8, aqueous with cosolvent or surfactant or cyclodextrin, pH 6.8 Phosphate Buffer 80.0 / Propylene glycol 20.0 % w/w, read-out: Actual Solubility
  solubility: 0.08 mg/mL
